In article PMC9488892 (Medicinal Chemistry Research, 2022):

How the values were obtained:
[1] = target: melatonin type I (MT1) receptor (Homo sapiens, UniProt P48039); format: cell-based
[2] = target: T1, melatonin type II (MT2) receptor (Homo sapiens, UniProt P49286); format: cell-based
T1 sequence (P49286 1-362): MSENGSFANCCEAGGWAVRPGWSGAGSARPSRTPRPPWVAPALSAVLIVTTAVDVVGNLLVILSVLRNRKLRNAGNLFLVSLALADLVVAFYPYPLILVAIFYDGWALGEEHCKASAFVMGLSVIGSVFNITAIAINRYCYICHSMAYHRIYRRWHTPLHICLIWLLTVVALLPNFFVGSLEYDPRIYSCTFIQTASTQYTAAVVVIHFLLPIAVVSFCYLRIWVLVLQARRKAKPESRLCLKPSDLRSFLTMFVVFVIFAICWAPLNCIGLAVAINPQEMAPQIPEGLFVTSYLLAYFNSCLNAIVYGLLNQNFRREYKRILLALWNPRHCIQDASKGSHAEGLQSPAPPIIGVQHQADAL

melatonin type I (MT1) receptor, sequence (P48039 whole entry): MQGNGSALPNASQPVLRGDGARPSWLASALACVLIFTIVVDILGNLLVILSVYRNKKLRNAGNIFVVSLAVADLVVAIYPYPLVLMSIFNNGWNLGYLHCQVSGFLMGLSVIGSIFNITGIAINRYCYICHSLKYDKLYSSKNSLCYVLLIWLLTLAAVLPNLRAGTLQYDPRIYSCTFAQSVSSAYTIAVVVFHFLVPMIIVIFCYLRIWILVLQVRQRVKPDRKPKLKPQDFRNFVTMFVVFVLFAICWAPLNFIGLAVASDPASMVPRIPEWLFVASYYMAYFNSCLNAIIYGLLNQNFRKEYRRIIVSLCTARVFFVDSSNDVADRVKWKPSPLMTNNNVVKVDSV

- EC50 [1]: 200 µM
- EC50 [2]: 240 µM
Structure (SMILES): Cc1cc2c(cc1O)[C@@H](C)[C@H]1Oc3cc(C)c(O)cc3[C@@]1(CN1CCN(C)CC1)O2 [compound 13, (5aS,10aR,11R)-3,8,11-trimethyl-5a-((4-methylpiperazin-1-yl)methyl)-5a,10a-dihydro-11H-benzofuro[3,2-b]chromene-2,7-diol]
